Results as given in the kinase profiling compilation of Christmann-Franck et al. (2016).

Columns and labels:
Experiment in all cases: KINOMEscan competition binding
Conditions in all cases: compound 10.0 µM
PRPF4B (human) = PRPF4B (human) (UniProt Q13523)
DAPK3 (human) = DAPK3 (human) (UniProt O43293)
PRKAA2 (human) = PRKAA2 (human) (UniProt P54646)
ACVR1 (human) = ACVR1 (human) (UniProt Q04771)
RPS6KA1 KD1 (human) = RPS6KA1 KD1 (human) (UniProt Q15418)
DYRK1A (human) = DYRK1A (human) (UniProt Q13627)
NEK6 (human) = NEK6 (human) (UniProt Q9HC98)
MAPK14 (human) = MAPK14 (human) (UniProt Q16539)
ERN1 (human) = ERN1 (human) (UniProt O75460)
YES1 (human) = YES1 (human) (UniProt P07947)
STK17A (human) = STK17A (human) (UniProt Q9UEE5)
AXL (human) = AXL (human) (UniProt P30530)
MAP4K4 (human) = MAP4K4 (human) (UniProt O95819)
MAP3K12 (human) = MAP3K12 (human) (UniProt Q12852)
FGR (human) = FGR (human) (UniProt P09769)
ULK3 (human) = ULK3 (human) (UniProt Q6PHR2)
RIPK4 (human) = RIPK4 (human) (UniProt P57078)
FGFR1 (human) = FGFR1 (human) (UniProt P11362)
[1] = test system: EGFR (human), P00533 [T790M]
CDK4 CCND1 (human) = CDK4 CCND1 (human) (UniProt P11802+P24385)
ULK2 (human) = ULK2 (human) (UniProt Q8IYT8)
[2] = test system: ABL1 (human), P00519 [M351T]
RPS6KA5 KD1 (human) = RPS6KA5 KD1 (human) (UniProt O75582)
GRK1 (human) = GRK1 (human) (UniProt Q15835)
MERTK (human) = MERTK (human) (UniProt Q12866)
[3] = test system: KIT (human), P10721 [D816V]
SRC (human) = SRC (human) (UniProt P12931)
CLK4 (human) = CLK4 (human) (UniProt Q9HAZ1)
PKN2 (human) = PKN2 (human) (UniProt Q16513)
MAP3K2 (human) = MAP3K2 (human) (UniProt Q9Y2U5)
MAP3K1 (human) = MAP3K1 (human) (UniProt Q13233)
EPHA3 (human) = EPHA3 (human) (UniProt P29320)
NTRK2 (human) = NTRK2 (human) (UniProt Q16620)
[4] = test system: KIT (human), P10721 [L576P]
[5] = test system: KIT (human), P10721 [V559D]
PIK3C2G (human) = PIK3C2G (human) (UniProt O75747)
PAK7 (human) = PAK7 (human) (UniProt Q9P286)
MARK1 (human) = MARK1 (human) (UniProt Q9P0L2)
RAF1 (human) = RAF1 (human) (UniProt P04049)
[6] = test system: FLT3 (human), P36888 [R834Q]
ADCK3 (human) = ADCK3 (human) (UniProt Q8NI60)
TNK1 (human) = TNK1 (human) (UniProt Q13470)
Chain of TNK1 (human) (Q13470 whole entry, looked up): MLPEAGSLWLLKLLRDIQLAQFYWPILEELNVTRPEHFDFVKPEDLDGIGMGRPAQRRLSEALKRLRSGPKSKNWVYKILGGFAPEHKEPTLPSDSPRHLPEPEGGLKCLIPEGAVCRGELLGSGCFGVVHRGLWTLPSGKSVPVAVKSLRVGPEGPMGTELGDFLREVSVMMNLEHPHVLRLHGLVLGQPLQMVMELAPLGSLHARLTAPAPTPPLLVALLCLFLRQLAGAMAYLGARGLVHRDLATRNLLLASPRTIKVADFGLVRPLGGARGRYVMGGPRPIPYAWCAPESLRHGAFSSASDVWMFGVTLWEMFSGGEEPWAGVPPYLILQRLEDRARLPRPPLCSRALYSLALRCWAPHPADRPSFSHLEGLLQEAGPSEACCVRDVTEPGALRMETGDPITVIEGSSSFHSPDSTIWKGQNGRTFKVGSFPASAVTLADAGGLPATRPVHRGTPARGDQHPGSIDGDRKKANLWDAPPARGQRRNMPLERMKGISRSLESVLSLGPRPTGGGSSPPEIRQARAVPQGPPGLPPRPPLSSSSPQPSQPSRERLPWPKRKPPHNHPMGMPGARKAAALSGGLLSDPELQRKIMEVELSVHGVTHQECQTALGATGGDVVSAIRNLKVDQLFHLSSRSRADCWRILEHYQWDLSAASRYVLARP

Chain of SRC (human) (P12931 whole entry, looked up): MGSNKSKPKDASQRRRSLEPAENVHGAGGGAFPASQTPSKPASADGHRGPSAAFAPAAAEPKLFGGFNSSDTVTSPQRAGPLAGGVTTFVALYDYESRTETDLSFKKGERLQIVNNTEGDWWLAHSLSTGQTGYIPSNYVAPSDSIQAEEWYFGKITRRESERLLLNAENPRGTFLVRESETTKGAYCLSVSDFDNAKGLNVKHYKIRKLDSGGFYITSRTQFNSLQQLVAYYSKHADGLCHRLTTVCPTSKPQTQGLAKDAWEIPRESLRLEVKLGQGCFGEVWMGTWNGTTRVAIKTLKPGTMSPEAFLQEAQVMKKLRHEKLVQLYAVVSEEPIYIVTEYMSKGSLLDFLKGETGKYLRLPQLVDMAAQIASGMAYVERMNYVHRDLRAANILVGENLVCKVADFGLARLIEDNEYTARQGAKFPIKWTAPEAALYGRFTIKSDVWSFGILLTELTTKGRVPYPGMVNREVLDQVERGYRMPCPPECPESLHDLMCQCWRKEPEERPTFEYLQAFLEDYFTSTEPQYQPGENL
Chain of RIPK4 (human) (P57078 whole entry, looked up): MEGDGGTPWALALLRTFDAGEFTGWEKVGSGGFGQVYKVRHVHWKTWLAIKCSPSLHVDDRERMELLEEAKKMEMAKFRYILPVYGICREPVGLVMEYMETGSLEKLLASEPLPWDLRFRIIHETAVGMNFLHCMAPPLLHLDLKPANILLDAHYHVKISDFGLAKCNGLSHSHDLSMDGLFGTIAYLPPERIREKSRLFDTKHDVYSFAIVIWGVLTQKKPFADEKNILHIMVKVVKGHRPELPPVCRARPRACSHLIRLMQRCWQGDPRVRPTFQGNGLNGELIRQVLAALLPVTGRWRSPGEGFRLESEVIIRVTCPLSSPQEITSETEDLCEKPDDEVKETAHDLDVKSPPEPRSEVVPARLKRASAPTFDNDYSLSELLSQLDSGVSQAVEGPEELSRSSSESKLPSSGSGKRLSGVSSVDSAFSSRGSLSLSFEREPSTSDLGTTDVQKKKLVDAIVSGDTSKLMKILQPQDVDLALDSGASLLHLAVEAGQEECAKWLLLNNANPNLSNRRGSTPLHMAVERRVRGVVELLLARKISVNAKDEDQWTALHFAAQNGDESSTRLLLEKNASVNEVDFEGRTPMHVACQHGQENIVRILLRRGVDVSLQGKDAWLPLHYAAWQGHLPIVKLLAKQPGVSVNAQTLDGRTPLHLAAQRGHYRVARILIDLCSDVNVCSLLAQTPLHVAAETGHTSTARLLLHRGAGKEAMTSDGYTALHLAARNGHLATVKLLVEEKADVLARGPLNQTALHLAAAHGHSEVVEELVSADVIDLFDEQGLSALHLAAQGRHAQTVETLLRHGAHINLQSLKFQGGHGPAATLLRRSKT
Chain of STK17A (human) (Q9UEE5 whole entry, looked up): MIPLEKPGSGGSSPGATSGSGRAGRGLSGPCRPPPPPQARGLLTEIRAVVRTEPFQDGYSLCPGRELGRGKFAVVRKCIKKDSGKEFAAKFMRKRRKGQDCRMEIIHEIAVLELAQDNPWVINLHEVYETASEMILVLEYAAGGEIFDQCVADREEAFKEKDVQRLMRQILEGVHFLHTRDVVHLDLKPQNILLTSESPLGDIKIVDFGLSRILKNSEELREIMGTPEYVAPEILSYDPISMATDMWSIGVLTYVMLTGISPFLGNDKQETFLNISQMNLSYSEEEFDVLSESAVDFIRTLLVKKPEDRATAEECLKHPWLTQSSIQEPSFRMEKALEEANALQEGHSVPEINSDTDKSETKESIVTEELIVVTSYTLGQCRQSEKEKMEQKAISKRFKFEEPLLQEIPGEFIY
Chain of ULK2 (human) (Q8IYT8 whole entry, looked up): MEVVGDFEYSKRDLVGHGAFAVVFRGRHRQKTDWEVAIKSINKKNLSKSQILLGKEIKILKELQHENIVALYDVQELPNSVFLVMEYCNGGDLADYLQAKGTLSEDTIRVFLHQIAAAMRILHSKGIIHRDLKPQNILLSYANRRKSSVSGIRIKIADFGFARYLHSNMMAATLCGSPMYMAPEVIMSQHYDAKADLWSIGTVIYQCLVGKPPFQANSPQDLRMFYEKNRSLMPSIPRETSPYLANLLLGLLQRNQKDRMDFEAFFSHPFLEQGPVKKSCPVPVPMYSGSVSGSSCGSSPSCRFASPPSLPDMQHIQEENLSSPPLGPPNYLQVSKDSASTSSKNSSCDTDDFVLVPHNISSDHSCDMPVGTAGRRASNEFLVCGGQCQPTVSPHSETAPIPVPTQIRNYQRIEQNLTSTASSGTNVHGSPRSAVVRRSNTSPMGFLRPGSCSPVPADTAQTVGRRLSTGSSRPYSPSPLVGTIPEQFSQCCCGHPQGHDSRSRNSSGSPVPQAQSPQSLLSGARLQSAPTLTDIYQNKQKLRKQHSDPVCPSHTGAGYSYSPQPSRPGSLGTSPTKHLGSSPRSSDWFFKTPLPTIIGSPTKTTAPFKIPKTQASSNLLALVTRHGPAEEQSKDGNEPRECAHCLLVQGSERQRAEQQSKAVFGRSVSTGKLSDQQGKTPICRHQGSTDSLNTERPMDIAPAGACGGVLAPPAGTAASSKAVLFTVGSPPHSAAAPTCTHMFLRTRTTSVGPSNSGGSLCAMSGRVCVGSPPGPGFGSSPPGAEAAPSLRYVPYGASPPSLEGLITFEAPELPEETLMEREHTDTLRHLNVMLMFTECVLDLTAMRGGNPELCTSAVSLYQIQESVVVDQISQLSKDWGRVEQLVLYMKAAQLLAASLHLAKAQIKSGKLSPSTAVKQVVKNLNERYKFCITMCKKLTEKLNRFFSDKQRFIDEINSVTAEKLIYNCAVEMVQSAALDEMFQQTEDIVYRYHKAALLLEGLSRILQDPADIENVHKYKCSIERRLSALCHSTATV
Chain of PIK3C2G (human) (O75747 whole entry, looked up): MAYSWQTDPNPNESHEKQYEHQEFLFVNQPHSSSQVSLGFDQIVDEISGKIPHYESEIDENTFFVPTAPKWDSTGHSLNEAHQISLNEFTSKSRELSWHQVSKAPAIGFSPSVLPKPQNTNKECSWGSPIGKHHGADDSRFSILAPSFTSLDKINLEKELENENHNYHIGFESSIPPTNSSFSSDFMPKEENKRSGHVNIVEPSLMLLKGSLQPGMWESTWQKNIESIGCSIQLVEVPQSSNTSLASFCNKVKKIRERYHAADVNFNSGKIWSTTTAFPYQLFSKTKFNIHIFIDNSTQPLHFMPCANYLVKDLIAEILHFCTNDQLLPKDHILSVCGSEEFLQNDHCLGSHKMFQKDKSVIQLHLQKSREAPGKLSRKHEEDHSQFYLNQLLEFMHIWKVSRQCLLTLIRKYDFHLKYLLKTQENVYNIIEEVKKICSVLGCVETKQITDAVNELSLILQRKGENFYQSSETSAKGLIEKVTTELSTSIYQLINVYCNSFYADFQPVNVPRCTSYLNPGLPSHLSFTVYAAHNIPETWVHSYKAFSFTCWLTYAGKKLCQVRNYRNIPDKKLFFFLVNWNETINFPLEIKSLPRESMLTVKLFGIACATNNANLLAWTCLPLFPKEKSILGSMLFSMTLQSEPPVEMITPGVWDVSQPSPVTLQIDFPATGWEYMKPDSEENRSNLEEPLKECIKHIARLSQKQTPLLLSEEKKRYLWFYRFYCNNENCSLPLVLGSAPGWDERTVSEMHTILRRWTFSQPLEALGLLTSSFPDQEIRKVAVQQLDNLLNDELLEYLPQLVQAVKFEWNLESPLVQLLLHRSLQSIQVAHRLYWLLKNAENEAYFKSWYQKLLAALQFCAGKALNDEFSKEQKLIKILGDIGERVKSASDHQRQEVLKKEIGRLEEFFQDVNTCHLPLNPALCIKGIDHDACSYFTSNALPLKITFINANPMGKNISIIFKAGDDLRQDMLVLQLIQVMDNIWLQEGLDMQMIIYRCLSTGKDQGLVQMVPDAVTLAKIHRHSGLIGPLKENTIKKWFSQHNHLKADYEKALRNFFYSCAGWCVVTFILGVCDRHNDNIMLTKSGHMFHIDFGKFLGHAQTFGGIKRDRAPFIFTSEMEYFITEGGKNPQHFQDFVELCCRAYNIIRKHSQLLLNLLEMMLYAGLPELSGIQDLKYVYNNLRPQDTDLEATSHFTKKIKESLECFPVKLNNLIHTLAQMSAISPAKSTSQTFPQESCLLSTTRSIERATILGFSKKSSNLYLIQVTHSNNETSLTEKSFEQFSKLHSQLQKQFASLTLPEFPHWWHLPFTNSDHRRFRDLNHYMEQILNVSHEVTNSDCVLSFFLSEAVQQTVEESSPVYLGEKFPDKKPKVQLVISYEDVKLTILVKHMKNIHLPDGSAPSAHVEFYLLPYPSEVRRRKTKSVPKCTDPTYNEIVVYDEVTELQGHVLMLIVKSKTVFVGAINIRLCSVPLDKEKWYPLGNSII

## Cc1cc([C@@H](C)Nc2ccccc2C(=O)O)c2nc(N3CCOCC3)cc(=O)n2c1
PRPF4B (human)
  kinase still bound, per cent of control: 100%
DAPK3 (human)
  kinase still bound, per cent of control: 78%
PRKAA2 (human)
  kinase still bound, per cent of control: 91%
ACVR1 (human)
  kinase still bound, per cent of control: 100%
RPS6KA1 KD1 (human)
  kinase still bound, per cent of control: 67%
DYRK1A (human)
  kinase still bound, per cent of control: 99%
NEK6 (human)
  kinase still bound, per cent of control: 100%
MAPK14 (human)
  kinase still bound, per cent of control: 100%
ERN1 (human)
  kinase still bound, per cent of control: 100%
YES1 (human)
  kinase still bound, per cent of control: 100%
STK17A (human)
  kinase still bound, per cent of control: 87%
AXL (human)
  kinase still bound, per cent of control: 100%
MAP4K4 (human)
  kinase still bound, per cent of control: 98%
MAP3K12 (human)
  kinase still bound, per cent of control: 98%
FGR (human)
  kinase still bound, per cent of control: 76%
ULK3 (human)
  kinase still bound, per cent of control: 100%
RIPK4 (human)
  kinase still bound, per cent of control: 87%
FGFR1 (human)
  kinase still bound, per cent of control: 97%
[1]
  kinase still bound, per cent of control: 100%
CDK4 CCND1 (human)
  kinase still bound, per cent of control: 38%
ULK2 (human)
  kinase still bound, per cent of control: 100%
[2]
  kinase still bound, per cent of control: 100%
RPS6KA5 KD1 (human)
  kinase still bound, per cent of control: 100%
GRK1 (human)
  kinase still bound, per cent of control: 81%
MERTK (human)
  kinase still bound, per cent of control: 100%
[3]
  kinase still bound, per cent of control: 100%
SRC (human)
  kinase still bound, per cent of control: 100%
CLK4 (human)
  kinase still bound, per cent of control: 100%
PKN2 (human)
  kinase still bound, per cent of control: 74%
MAP3K2 (human)
  kinase still bound, per cent of control: 88%
MAP3K1 (human)
  kinase still bound, per cent of control: 100%
EPHA3 (human)
  kinase still bound, per cent of control: 85%
NTRK2 (human)
  kinase still bound, per cent of control: 81%
[4]
  kinase still bound, per cent of control: 90%
[5]
  kinase still bound, per cent of control: 93%
PIK3C2G (human)
  kinase still bound, per cent of control: 16%
PAK7 (human)
  kinase still bound, per cent of control: 92%
MARK1 (human)
  kinase still bound, per cent of control: 90%
RAF1 (human)
  kinase still bound, per cent of control: 97%
[6]
  kinase still bound, per cent of control: 100%
ADCK3 (human)
  kinase still bound, per cent of control: 70%
TNK1 (human)
  kinase still bound, per cent of control: 91%
